This passage reports IC50 results from patent publication US11685734B2, “ATM kinase inhibitors and compositions and methods of use thereof” (CHDI Foundation, Inc., priority 2019, dated 2023).

Assay [1] addresses cellular ATM activity (Homo sapiens (Human), UniProt Q13315). In words: Inhibition of cellular ATM activity: etoposide-stimulated KAP1 phosphorylation in U20S cells. Type of assay: cell-based. Conditions: 100 μM etoposide, 60 min, read-out: ATM CELL IC50.
Assay [2] concerns the target Recombinant, full length human FLAG-tagged ATM (Homo sapiens (Human), UniProt Q13315). In words: ATM ELISA for p53 S15 phosphorylation. The format is biochemical. To be noted: 0.75 nM ATM, 25 nM p53, 10 μM ATP, 30 min at 20° C.; read-out: ATM BIO IC50. In outline:
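ELISA of p53 S15 phosphorylation by 0.75 nM full-length FLAG-ATM, with 25 nM myc-p53 and 10 μM ATP in HEPES pH 7.5 with Mg/Mn, 30 min at 20° C. Reactions were EDTA-stopped, captured on anti-myc and detected with anti-pS15/HRP-TMB at 450 nm.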
Background: An ELISA detects its analyte on a solid surface through an enzyme-linked reagent.

Molecules are shown by their SMILES.

cellular ATM activity, sequence (Q13315 whole entry): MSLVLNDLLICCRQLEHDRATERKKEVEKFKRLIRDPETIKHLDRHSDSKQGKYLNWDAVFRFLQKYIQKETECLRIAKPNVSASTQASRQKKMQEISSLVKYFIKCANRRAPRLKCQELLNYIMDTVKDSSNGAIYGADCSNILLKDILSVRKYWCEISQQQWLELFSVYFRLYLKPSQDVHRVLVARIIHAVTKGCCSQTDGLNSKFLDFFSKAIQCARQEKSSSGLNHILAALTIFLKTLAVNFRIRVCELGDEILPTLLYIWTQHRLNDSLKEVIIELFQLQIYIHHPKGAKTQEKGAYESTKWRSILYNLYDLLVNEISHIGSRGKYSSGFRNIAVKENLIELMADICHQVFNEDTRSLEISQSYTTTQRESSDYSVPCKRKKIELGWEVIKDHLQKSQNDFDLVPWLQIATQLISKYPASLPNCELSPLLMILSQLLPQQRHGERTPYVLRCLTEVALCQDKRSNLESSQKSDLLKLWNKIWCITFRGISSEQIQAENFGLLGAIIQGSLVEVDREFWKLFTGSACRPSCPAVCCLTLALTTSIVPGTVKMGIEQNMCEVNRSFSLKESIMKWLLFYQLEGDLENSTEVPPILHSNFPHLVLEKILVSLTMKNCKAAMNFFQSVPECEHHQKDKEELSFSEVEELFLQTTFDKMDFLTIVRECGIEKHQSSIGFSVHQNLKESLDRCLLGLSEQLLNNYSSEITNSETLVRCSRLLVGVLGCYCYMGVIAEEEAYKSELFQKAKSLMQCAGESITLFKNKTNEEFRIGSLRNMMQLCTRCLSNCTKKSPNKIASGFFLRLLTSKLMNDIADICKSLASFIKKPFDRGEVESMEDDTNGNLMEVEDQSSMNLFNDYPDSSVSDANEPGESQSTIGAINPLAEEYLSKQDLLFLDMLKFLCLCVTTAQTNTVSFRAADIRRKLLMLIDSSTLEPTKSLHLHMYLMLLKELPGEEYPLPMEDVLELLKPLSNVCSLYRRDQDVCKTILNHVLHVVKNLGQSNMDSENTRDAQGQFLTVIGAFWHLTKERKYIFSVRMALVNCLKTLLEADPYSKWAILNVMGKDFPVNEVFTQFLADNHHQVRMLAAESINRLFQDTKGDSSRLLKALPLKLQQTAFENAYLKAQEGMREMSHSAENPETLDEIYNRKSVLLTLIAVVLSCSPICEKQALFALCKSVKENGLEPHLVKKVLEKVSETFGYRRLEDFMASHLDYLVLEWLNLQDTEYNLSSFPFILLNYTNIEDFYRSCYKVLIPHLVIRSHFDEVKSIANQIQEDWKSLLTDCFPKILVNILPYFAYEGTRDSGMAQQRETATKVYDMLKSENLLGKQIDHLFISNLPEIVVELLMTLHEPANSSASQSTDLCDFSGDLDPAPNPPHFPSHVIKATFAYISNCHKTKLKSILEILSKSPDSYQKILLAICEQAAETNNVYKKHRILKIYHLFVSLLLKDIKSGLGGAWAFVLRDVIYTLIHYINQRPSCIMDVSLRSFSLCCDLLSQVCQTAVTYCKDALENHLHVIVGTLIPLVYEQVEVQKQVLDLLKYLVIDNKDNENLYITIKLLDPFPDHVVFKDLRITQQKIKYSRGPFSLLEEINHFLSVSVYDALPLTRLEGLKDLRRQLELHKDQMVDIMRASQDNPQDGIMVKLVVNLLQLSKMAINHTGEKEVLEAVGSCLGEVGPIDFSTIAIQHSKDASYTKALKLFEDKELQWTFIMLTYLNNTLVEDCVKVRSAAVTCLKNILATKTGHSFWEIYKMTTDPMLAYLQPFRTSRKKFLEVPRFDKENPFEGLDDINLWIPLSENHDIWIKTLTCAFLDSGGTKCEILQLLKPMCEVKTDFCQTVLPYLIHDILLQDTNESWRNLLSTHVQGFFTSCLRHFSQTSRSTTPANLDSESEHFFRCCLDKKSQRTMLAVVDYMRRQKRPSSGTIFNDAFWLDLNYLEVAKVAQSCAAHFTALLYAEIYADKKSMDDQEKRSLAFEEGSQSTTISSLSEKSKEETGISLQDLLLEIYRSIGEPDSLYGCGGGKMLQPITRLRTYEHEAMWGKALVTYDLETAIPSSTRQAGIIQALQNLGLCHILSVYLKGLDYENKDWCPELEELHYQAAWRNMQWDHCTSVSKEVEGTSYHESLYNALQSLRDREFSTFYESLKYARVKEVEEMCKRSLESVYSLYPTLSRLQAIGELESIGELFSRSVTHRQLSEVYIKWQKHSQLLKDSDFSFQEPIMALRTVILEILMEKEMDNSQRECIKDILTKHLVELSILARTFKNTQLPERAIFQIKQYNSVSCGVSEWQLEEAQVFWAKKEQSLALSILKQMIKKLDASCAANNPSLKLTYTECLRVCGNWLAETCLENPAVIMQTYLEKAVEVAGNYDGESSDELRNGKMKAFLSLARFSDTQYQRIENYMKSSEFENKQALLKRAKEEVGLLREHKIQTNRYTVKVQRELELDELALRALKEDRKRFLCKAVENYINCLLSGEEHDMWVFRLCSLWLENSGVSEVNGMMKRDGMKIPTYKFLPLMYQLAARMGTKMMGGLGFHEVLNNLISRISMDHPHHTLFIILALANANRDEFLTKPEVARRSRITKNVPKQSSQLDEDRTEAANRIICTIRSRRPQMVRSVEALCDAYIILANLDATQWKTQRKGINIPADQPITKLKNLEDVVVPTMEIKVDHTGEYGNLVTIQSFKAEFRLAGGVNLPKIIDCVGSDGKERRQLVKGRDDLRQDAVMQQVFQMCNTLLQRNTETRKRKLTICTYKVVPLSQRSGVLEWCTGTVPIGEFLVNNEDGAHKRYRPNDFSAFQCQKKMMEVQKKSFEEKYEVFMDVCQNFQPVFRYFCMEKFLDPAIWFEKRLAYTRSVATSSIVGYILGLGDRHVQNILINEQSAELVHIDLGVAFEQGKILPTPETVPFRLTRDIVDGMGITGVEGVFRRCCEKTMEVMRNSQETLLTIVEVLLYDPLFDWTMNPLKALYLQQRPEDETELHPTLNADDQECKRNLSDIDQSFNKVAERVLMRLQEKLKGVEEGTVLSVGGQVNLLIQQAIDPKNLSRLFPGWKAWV
Recombinant, full length human FLAG-tagged ATM, sequence (Q13315 whole entry): as above

As to `O=c1cc(N2CCOCC2)nc(N2C[C@@H]3C[C@@H]3[C@@H]2Cc2ccccc2)[nH]1` [Example 211], the IC50 in assay [1] was 446 nM; in assay [2], 3.7 nM.
Consider `COC[C@@H](C)Oc1ccc(C[C@H]2CCCCCN2c2cc(N3CCOCC3)cc(=O)[nH]2)cc1` [Example 151, 6-((R)-2-(4-(((R)-1-methoxypropan-2-yl)oxy)benzyl)azepan-1-yl)-4-morpholinopyridin-2(1H)-one], for which the values for the IC50 in assay [1] and in assay [2] were 1020 nM and 20.9 nM, respectively.
Take `C[C@@H]1CN(c2cc(=O)[nH]c(N3CCC[C@@H]3Cc3ccc(Cl)c(Cl)c3)n2)CCO1` [Example 278, 2-[(2R)-2-[(3,4-dichlorophenyl)methyl]pyrrolidin-1-yl]-4-[(2R)-2-methylmorpholin-4-yl]-1H-pyrimidin-6-one]: the values for the IC50 in assay [1] and in assay [2] were 969 nM and 89.7 nM, respectively.
Take `C[C@@H]1CN(c2cc(=O)[nH]c(N3CCC[C@@H]3Cc3ccc(F)cc3)n2)CCO1` [Example 281, 2-[(2R)-2-[(4-fluorophenyl)methyl]pyrrolidin-1-yl]-4-[(2R)-2-methylmorpholin-4-yl]-1H-pyrimidin-6-one]: the 50% inhibitory concentration (IC50) in assay [1] turned out to be 627 nM; in assay [2], 34.9 nM.
As to `Cc1ccc(C[C@H]2CCCN2c2nc(N3CCO[C@H](C)C3)cc(=O)[nH]2)cc1` [Example 274, 4-[(2R)-2-methylmorpholin-4-yl]-2-[(2R)-2-(p-tolylmethyl)pyrrolidin-1-yl]-1H-pyrimidin-6-one], the IC50 in assay [1] stood at 410 nM; in assay [2] it was 32.7 nM.
As for `C[C@@H]1CCN(c2nc(N3CCOCC3)cc(=O)[nH]2)[C@H]1Cc1ccccc1` [Example 215], the IC50 in assay [1] amounted to 74 nM; in assay [2] it was 1 nM.
Take `C[C@@H]1CN(c2cc(=O)[nH]c(N3CCCCC[C@@H]3Cc3ccccc3)n2)C[C@@H](C)O1` [Example 349, 2-((R)-2-benzylazepan-1-yl)-6-((2R,6R)-2,6-dimethylmorpholino)pyrimidin-4(3H)-one]: the values for the IC50 in assay [1] and in assay [2] were 345 nM and 7.5 nM, respectively.
Regarding `C[C@@H]1CCCN(c2cc(N3CCOCC3)cc(=O)[nH]2)[C@@H](Cc2ccccc2)C1` [Example 84, 6-((2R,4R)-2-benzyl-4-methylazepan-1-yl)-4-morpholinopyridin-2(1H)-one], the results for the IC50 in assay [1] and in assay [2] were 864 nM and 47.6 nM, respectively.
As for `COc1cc(F)ccc1C[C@H]1CCCCCN1c1cc(N2CCOCC2)cc(=O)[nH]1` [Example 50, (R)-6-(2-(4-fluoro-2-methoxybenzyl)azepan-1-yl)-4-morpholinopyridin-2(1H)-one], the IC50 in assay [1] was determined as 977 nM; in assay [2], 23 nM.
For the molecule `O=c1cc(N2CCOCC2)cc(N2CCCC(F)(F)C[C@@H]2Cc2ccccc2)[nH]1` [Example 74, (S)-6-(2-benzyl-4,4-difluoroazepan-1-yl)-4-morpholinopyridin-2(1H)-one], the figures for the IC50 in assay [1] and in assay [2] were 498 nM and 11.2 nM, respectively.
Consider `C[C@@H]1CN(c2cc(=O)[nH]c(N3CCCCC[C@@H]3Cc3ccc(F)cc3)n2)CCO1` [Example 304, 2-((R)-2-(4-fluorobenzyl)azepan-1-yl)-6-((R)-2-methylmorpholino)pyrimidin-4(3H)-one], for which the values for the IC50 in assay [1] and in assay [2] were 957 nM and 19.2 nM, respectively.
Consider `COC[C@@H](C)Oc1cccc(C[C@H]2CCCN2c2cc(N3CCOCC3)cc(=O)[nH]2)c1` [Example 148, 6-((R)-2-(3-(((R)-1-methoxypropan-2-yl)oxy)benzyl)pyrrolidin-1-yl)-4-morpholinopyridin-2(1H)-one], for which the IC50 in assay [1] worked out at 1170 nM; in assay [2], 41.8 nM.
For the molecule `COc1ccccc1C[C@H]1CCCCCN1c1nc(N2CCOCC2)cc(=O)[nH]1` [Example 201], the figures for the IC50 in assay [1] and in assay [2] were 693 nM and 14.1 nM, respectively.
On to `O=c1cc(N2CCOCC2)cc(N2CCC(F)(F)[C@@H]2Cc2ccccc2)[nH]1` [Example 98, (S)-6-(2-benzyl-3,3-difluoropyrrolidin-1-yl)-4-morpholinopyridin-2(1H)-one], for which the IC50 in assay [1] came out at 925 nM; in assay [2], 38.4 nM.
The matching figures for `C[C@H]1CCCN(c2nc(N3CCOCC3)cc(=O)[nH]2)[C@@H](Cc2ccccc2)C1` [Example 233]: 327 nM and 1.2 nM.
Take `O=c1cc(N2CCOCC2)cc(N2CC[C@@H](F)[C@@H]2Cc2ccccc2)[nH]1` [Example 96, 6-((2S,3R)-2-benzyl-3-fluoropyrrolidin-1-yl)-4-morpholinopyridin-2(1H)-one]: the concentration for half-maximal inhibition (IC50) in assay [1] turned out to be 270 nM; in assay [2], 5.5 nM.
With `CC1C[C@H](Cc2ccccc2)N(c2cc(N3CCOCC3)cc(=O)[nH]2)C1` (single isomer, unassigned) [Example 100, 6-((2R,4R*)-2-benzyl-4-methylpyrrolidin-1-yl)-4-morpholinopyridin-2(1H)-one], the IC50 in assay [1] was found to be 1630 nM; in assay [2], 33.1 nM.
For `COc1ccc(C[C@H]2CCCCCN2c2cc(N3CCOCC3)cc(=O)[nH]2)cc1` [Example 29, 6-[(2R)-2-[(4-methoxyphenyl)methyl]azepan-1-yl]-4-morpholino-1H-pyridin-2-one], the values for the IC50 in assay [1] and in assay [2] were 371 nM and 32.5 nM, respectively.
Turning to `CC1OCCN(c2cc(=O)[nH]c(N3CCCC3Cc3ccccc3)n2)C1C` (single isomer, unassigned) [Example 352, 2-(2-benzylpyrrolidin-1-yl)-6-(2,3-dimethylmorpholino)pyrimidin-4(3H)-one], the concentration for half-maximal inhibition (IC50) in assay [1] was 1530 nM; in assay [2] it was 24 nM.
The matching figures for `COc1cccc(C[C@H]2CCCCCN2c2nc(N3CCOCC3)cc(=O)[nH]2)c1OC` [Example 230]: 881 nM and 71.2 nM.
With `O=c1cc(N2CCOCC2)nc(N2CCC(F)(F)[C@@H]2Cc2ccccc2)[nH]1` [Example 253, (S)-2-(2-benzyl-3,3-difluoropyrrolidin-1-yl)-6-morpholinopyrimidin-4(3H)-one], the IC50 in assay [1] amounted to 434 nM; in assay [2] it was 11.3 nM.
Turning to `CC1(C)CCCN(c2nc(N3CCOCC3)cc(=O)[nH]2)[C@@H](Cc2ccccc2)C1` [Example 242], the concentration for half-maximal inhibition (IC50) in assay [1] was found to be 9760 nM; in assay [2], 84.5 nM.
On to `COc1ccccc1C[C@H]1CCCN1c1cc(N2CCOCC2)cc(=O)[nH]1` [Example 7, (R)-6-(2-(2-methoxybenzyl)pyrrolidin-1-yl)-4-morpholinopyridin-2(1H)-one], for which the half-inhibitory concentration (IC50) in assay [1] worked out at 1020 nM; in assay [2], 44.6 nM.
Take `COc1ccccc1C[C@H]1[C@H](C)CCN1c1nc(N2CCO[C@H](C)C2)cc(=O)[nH]1` [Example 296, 2-((2S,3R)-2-(2-methoxybenzyl)-3-methylpyrrolidin-1-yl)-6-((R)-2-methylmorpholino)pyrimidin-4(3H)-one]: the IC50 worked out at 1850 nM in assay [1] and 40.5 nM in assay [2].
Regarding `Cc1cc(C[C@H]2CCCN2c2nc(N3CCO[C@H](C)C3)cc(=O)[nH]2)cc(C)n1` [Example 277, 2-[(2R)-2-[(2,6-dimethyl-4-pyridyl)methyl]pyrrolidin-1-yl]-4-[(2R)-2-methylmorpholin-4-yl]-1H-pyrimidin-6-one], the figures for the IC50 in assay [1] and in assay [2] were 417 nM and 57 nM, respectively.
The matching figures for `COc1ccccc1C[C@H]1CC2(CC2)CN1c1nc(N2CCOCC2)cc(=O)[nH]1` [Example 264, (R)-2-(6-(2-methoxybenzyl)-5-azaspiro[2.4]heptan-5-yl)-6-morpholinopyrimidin-4(3H)-one]: 350 nM and 5.3 nM.
Consider `COCCOc1ccc(C[C@H]2CCCCCN2c2nc(N3CCO[C@H](C)C3)cc(=O)[nH]2)cc1` [Example 309, 2-((R)-2-(4-(2-methoxyethoxy)benzyl)azepan-1-yl)-6-((R)-2-methylmorpholino)pyrimidin-4(3H)-one], for which the IC50 stood at 256 nM in assay [1] and 6.2 nM in assay [2].
`Cc1ccccc1C[C@H]1CCCCCN1c1nc(N2CCOCC2)cc(=O)[nH]1` [Example 181, (R)-2-(2-(2-methylbenzyl)azepan-1-yl)-6-morpholinopyrimidin-4(3H)-one]: the values for the IC50 in assay [1] and in assay [2] were 548 nM and 1.2 nM, respectively.
For `COc1ccc(OC)c(C[C@H]2CCCCCN2c2cc(N3CCOCC3)cc(=O)[nH]2)c1` [Example 66], the IC50 in assay [1] amounted to 603 nM; in assay [2] it was 18.7 nM.
As to `C[C@H]1CCN(c2nc(N3CCOCC3)cc(=O)[nH]2)[C@H]1Cc1ccccc1` [Example 261, 2-((2S,3S)-2-benzyl-3-methylpyrrolidin-1-yl)-6-morpholinopyrimidin-4(3H)-one], the IC50 was 3050 nM in assay [1] and 61.3 nM in assay [2].
With `O=c1cc(N2CCOCC2)cc(N2CCCCC[C@@H]2Cc2ccccc2F)[nH]1` [Example 78, (R)-6-(2-(2-fluorobenzyl)azepan-1-yl)-4-morpholinopyridin-2(1H)-one], the IC50 in assay [1] was found to be 318 nM; in assay [2] it was 10.8 nM.
The matching figures for `O=c1cc(N2CCOCC2)nc(N2CCC[C@@H]2Cc2ccccc2)[nH]1` [Example 178, (R)-2-(2-benzylpyrrolidin-1-yl)-6-morpholinopyrimidin-4-ol]: 451 nM and 8 nM.
Consider `COc1ccccc1C[C@H]1[C@@H](F)CCN1c1nc(N2CCO[C@H](C)C2)cc(=O)[nH]1` [Example 324], for which the IC50 in assay [1] worked out at 1680 nM; in assay [2] it was 5.4 nM.
As for `COc1ccccc1C[C@H]1CCCCN1c1nc(N2CCOCC2)cc(=O)[nH]1` [Example 197], the IC50 came to 711 nM in assay [1] and 14.9 nM in assay [2].
Turning to `O=c1cc(N2CCOCC2)nc(N2CCCCC[C@@H]2Cc2cccc(F)c2F)[nH]1` [Example 223], the IC50 is 512 nM in assay [1] and 26.3 nM in assay [2].
Turning to `O=c1cc(N2CCOCC2)cc(N2C[C@H]3CCC[C@H]3[C@@H]2Cc2ccccc2)[nH]1` [Example 123], the IC50 in assay [1] was determined as 861 nM; in assay [2], 21.2 nM.

As usually defined, the IC50 is the concentration that gives 50% inhibition.
